# Assay results as given in paper PMC4874011, “Identification and functional characterization of the sulfate transporter gene GmSULTR1;2b in soybean” (BMC Genomics, 2016).
# Tested on: T1, GmSULTR1;2b
# T1 construct: C-terminal STAS domain
# Test: […]-sulfate uptake in sul1 sul2 yeast cells, Michaelis-Menten fit
# Format: cell-based, Glycine max
# Conditions: pH 6.0; proton-coupled uptake; yeast CP154-7A; labelled compound
structure (smiles),measurement,value
O=S(=O)(O)O [sulfate],Km,9.5 ± 1.7 µM
